Where two headings read alike, the source gives them in different places.
Key:
Type in all cases: binding
broad panel of kinases [1] = target: broad panel of kinases (Homo sapiens, UniProt Q8WTQ7); conditions: GRK7; 1 μM
broad panel of kinases [2] = target: broad panel of kinases (Homo sapiens, UniProt P23443); conditions: S6K1; 1 μM
broad panel of kinases [3] = target: broad panel of kinases (Homo sapiens, UniProt P51817); conditions: PRKX; 1 μM
broad panel of kinases [4] = target: broad panel of kinases (Homo sapiens, UniProt Q86Z02); conditions: HIPK1; 1 μM
broad panel of kinases [5] = target: broad panel of kinases (Homo sapiens, UniProt Q13177); conditions: PAK2; 1 μM
Sequence of broad panel of kinases (Homo sapiens, UniProt Q13177) (Q13177 2-524 limits assumed): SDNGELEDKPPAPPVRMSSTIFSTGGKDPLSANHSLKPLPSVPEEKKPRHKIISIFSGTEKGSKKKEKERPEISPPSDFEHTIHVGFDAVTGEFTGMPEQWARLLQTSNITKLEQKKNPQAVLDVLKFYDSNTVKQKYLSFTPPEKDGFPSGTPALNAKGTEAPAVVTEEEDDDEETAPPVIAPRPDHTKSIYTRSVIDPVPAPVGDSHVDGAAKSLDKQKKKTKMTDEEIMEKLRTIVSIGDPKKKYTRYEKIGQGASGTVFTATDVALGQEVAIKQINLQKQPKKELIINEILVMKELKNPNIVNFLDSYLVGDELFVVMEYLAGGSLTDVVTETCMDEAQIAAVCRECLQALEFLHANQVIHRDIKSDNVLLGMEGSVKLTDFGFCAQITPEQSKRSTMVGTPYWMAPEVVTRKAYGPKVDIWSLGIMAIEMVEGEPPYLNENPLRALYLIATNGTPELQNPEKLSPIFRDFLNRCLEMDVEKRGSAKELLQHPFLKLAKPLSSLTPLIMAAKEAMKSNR

broad panel of kinases [6] = target: broad panel of kinases (Homo sapiens, UniProt Q12852); conditions: DLK; 1 μM
broad panel of kinases [7] = target: broad panel of kinases (Homo sapiens, UniProt Q04771); conditions: ACVR1; 1 μM
broad panel of kinases [8] = target: broad panel of kinases (Homo sapiens, UniProt Q9HAZ1); conditions: CLK4; 1 μM
broad panel of kinases [9] = target: broad panel of kinases (Homo sapiens, UniProt Q9Y6E0); conditions: MST3; 1 μM
broad panel of kinases [10] = target: broad panel of kinases (Homo sapiens, UniProt P00519, F317L); conditions: 1 μM
broad panel of kinases [11] = target: broad panel of kinases (Homo sapiens, UniProt Q9UQ88); conditions: CDC2L2; 1 μM
broad panel of kinases [12] = target: broad panel of kinases (Homo sapiens, UniProt O15075); conditions: DCAMKL1; 1 μM
broad panel of kinases [13] = target: broad panel of kinases (Homo sapiens, UniProt Q96SB4); conditions: SRPK1; 1 μM
broad panel of kinases [14] = target: broad panel of kinases (Homo sapiens, UniProt Q13233); conditions: MAP3K1; 1 μM
broad panel of kinases [15] = target: broad panel of kinases (Homo sapiens, UniProt Q9UM73, C1156Y); conditions: ALK(C1156Y); 1 μM
broad panel of kinases [16] = target: broad panel of kinases (Homo sapiens, UniProt P04049); conditions: RAF1; 1 μM
broad panel of kinases [17] = target: broad panel of kinases (Homo sapiens, UniProt P11309); conditions: P1M1 (PIM1); 1 μM
broad panel of kinases [18] = target: broad panel of kinases (Homo sapiens, UniProt P49761); conditions: CLK3; 1 μM
broad panel of kinases [19] = target: broad panel of kinases (Homo sapiens, UniProt P54760); conditions: EPHB4; 1 μM
Sequence of broad panel of kinases (Homo sapiens, UniProt P54760) (P54760 16-987 limits assumed): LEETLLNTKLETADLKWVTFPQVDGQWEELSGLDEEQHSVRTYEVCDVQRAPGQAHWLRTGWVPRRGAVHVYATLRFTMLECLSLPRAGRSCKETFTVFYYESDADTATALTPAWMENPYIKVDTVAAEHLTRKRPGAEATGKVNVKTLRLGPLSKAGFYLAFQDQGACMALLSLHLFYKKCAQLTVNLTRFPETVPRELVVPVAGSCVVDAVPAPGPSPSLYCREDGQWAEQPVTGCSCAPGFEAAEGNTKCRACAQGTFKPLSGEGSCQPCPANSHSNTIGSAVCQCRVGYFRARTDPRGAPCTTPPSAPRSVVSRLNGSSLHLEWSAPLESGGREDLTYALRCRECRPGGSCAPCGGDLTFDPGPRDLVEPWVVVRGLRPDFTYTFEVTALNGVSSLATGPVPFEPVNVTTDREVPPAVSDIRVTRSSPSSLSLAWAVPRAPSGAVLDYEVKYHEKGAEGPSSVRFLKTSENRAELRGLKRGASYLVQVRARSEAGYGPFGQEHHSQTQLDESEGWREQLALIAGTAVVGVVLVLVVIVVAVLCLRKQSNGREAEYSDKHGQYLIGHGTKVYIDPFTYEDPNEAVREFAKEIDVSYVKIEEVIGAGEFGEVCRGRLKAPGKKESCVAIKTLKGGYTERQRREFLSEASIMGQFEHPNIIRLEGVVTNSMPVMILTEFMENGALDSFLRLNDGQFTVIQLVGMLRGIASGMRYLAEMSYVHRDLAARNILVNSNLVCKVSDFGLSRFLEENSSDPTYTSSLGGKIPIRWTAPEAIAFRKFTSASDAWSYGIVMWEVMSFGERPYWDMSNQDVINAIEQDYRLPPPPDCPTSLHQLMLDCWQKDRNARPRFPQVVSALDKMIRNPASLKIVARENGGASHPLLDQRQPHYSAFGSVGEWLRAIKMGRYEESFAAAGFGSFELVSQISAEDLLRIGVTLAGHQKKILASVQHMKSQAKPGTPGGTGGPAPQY

broad panel of kinases [20] = target: broad panel of kinases (Homo sapiens, UniProt Q00532); conditions: CDKL1; 1 μM
broad panel of kinases [21] = target: broad panel of kinases (Homo sapiens, UniProt P35590); conditions: TIE1; 1 μM
Sequence of broad panel of kinases (Homo sapiens, UniProt P35590) (P35590 22-1138 limits assumed): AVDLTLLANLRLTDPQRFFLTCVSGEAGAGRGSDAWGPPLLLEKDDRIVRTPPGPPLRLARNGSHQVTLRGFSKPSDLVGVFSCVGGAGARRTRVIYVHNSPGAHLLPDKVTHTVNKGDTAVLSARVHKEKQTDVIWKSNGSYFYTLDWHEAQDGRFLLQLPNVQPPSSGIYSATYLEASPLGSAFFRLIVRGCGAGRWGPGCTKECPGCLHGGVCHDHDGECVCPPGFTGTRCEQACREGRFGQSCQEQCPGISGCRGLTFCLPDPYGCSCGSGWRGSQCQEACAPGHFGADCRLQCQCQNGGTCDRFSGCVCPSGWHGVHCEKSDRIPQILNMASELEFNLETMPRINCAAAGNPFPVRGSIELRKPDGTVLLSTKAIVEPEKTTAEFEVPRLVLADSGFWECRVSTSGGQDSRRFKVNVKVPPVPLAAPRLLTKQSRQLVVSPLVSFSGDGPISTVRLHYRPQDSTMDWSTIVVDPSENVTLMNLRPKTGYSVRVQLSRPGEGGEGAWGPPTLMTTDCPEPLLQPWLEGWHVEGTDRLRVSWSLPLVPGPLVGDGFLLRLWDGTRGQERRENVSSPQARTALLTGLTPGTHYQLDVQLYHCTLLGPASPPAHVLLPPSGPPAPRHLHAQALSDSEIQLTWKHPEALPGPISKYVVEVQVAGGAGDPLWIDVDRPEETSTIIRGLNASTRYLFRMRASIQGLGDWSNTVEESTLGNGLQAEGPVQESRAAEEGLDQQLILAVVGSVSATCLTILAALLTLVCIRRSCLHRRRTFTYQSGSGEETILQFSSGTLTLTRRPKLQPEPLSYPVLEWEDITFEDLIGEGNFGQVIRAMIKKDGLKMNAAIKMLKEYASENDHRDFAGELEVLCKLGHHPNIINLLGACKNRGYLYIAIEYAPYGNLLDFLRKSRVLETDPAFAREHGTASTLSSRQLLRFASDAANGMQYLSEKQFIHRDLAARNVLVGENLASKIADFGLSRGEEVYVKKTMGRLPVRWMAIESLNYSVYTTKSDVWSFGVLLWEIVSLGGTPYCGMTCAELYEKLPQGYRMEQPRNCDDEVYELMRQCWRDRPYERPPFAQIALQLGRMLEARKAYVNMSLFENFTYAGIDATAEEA

broad panel of kinases [22] = target: broad panel of kinases (Homo sapiens, UniProt P11802); conditions: 1 μM
Sequence of broad panel of kinases (Homo sapiens, UniProt P11802) (P11802 2-303 limits assumed): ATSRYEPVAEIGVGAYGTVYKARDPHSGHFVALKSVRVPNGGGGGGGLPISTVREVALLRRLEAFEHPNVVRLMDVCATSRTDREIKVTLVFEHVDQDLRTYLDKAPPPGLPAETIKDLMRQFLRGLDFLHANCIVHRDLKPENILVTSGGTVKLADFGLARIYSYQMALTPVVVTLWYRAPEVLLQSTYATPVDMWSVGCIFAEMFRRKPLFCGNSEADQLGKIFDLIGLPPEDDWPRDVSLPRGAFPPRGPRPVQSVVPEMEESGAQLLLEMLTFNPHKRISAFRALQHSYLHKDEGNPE

broad panel of kinases [23] = target: broad panel of kinases (Homo sapiens, UniProt Q99683); conditions: ASK1; 1 μM
broad panel of kinases [24] = target: broad panel of kinases (Homo sapiens, UniProt P07949, V804L); conditions: RET(V804L); 1 μM
Sequence of broad panel of kinases (Homo sapiens, UniProt P07949, V804L) (P07949 29-1114 V804L limits assumed): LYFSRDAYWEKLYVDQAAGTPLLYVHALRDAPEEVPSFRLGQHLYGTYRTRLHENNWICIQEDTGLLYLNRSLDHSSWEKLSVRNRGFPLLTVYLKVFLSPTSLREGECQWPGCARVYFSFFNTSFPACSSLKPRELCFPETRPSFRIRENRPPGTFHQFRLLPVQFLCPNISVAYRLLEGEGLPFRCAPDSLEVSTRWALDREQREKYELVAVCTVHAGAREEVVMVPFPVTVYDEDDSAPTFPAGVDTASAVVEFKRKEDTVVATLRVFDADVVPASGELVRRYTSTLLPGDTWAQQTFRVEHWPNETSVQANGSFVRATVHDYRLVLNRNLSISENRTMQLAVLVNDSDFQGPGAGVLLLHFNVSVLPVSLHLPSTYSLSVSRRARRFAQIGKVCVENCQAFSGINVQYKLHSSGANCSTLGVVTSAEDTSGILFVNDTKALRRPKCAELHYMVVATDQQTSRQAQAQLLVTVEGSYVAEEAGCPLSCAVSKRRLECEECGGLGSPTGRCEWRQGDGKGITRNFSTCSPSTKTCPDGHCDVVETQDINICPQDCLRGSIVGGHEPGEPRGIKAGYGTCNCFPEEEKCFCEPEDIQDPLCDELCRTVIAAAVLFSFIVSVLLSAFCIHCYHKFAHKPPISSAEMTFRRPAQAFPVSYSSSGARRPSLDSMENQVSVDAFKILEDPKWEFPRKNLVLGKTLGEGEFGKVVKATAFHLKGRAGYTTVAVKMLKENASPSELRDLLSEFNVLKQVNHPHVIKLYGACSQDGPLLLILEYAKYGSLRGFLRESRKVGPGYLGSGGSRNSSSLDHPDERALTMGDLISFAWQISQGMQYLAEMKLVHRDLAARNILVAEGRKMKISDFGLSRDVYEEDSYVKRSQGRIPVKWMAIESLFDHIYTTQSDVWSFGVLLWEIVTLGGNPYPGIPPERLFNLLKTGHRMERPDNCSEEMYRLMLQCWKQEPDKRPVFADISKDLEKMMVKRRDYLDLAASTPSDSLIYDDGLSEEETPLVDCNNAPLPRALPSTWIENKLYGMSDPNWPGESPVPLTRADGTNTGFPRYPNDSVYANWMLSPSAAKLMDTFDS

broad panel of kinases [25] = target: broad panel of kinases (Homo sapiens, UniProt P07949, M918T); conditions: RET(M918T); 1 μM
Sequence of broad panel of kinases (Homo sapiens, UniProt P07949, M918T) (P07949 29-1114 M918T limits assumed): as the sequence (P07949 29-1114 V804L limits assumed) above, with L776V, M890T counted along it

broad panel of kinases [26] = target: broad panel of kinases (Homo sapiens, UniProt Q8N752); conditions: CSNK1A1L; 1 μM
broad panel of kinases [27] = target: broad panel of kinases (Homo sapiens, UniProt Q9NSY1); conditions: BIKE; 1 μM
broad panel of kinases [28] = target: broad panel of kinases (Homo sapiens, UniProt Q00526); conditions: CDK3; 1 μM
broad panel of kinases [29] = target: broad panel of kinases (Homo sapiens, UniProt P27448); conditions: MARK3; 1 μM
broad panel of kinases [30] = target: broad panel of kinases (Homo sapiens, UniProt P22694); conditions: PKAC-beta; 1 μM
broad panel of kinases [31] = target: broad panel of kinases (Homo sapiens, UniProt P48729); conditions: CSNK1A1; 1 μM
broad panel of kinases [32] = target: broad panel of kinases (Homo sapiens, UniProt P0C1S8); conditions: WEE2; 1 μM
broad panel of kinases [33] = target: broad panel of kinases (Homo sapiens, UniProt P54762); conditions: EPHB1; 1 μM
Sequence of broad panel of kinases (Homo sapiens, UniProt P54762) (P54762 18-984 limits assumed): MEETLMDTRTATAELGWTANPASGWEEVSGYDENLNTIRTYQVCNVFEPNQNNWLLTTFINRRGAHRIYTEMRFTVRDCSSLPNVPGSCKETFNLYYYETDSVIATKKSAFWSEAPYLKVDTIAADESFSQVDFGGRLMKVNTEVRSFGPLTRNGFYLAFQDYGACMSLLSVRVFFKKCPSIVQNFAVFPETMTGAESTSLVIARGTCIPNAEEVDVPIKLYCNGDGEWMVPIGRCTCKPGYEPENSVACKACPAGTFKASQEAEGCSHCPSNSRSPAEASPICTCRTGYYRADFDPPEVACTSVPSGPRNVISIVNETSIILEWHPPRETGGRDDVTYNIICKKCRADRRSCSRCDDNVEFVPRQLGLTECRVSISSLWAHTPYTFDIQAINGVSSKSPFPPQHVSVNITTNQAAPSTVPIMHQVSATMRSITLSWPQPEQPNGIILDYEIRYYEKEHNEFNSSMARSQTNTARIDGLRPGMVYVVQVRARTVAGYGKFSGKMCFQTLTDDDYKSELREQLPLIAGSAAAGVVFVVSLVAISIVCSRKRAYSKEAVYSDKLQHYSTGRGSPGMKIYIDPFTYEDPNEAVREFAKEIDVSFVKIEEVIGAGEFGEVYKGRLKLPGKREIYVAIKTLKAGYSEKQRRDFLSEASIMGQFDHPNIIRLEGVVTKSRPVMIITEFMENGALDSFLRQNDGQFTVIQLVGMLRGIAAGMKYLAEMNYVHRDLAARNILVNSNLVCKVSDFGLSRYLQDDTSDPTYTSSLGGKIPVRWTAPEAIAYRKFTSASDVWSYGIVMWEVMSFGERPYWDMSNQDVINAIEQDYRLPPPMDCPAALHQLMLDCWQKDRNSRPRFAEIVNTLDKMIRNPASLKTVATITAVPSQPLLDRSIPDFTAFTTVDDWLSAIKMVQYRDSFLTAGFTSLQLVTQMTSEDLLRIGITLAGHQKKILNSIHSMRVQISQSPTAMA

broad panel of kinases [34] = target: broad panel of kinases (Homo sapiens, UniProt P46734); conditions: MEK3; 1 μM
broad panel of kinases [35] = target: broad panel of kinases (Homo sapiens, UniProt Q14164); conditions: IKK-epsilon; 1 μM
broad panel of kinases [36] = target: broad panel of kinases (Homo sapiens, UniProt Q8IVW4); conditions: CDKL3; 1 μM
broad panel of kinases [37] = target: broad panel of kinases (Homo sapiens, UniProt Q96L34); conditions: MARK4; 1 μM

C=CC(=O)N1CC[C@H](Nc2nc(CN3CCOCC3)cc(Nc3ncc(C(=O)Nc4c(C)cccc4C)s3)n2)C1 [Example I-2]
percent of control binding remaining (lower = stronger binding) (broad panel of kinases [1]): 97%
percent of control binding remaining (lower = stronger binding) (broad panel of kinases [2]): 100%
percent of control binding remaining (lower = stronger binding) (broad panel of kinases [3]): 100%
percent of control binding remaining (lower = stronger binding) (broad panel of kinases [4]): 93%
percent of control binding remaining (lower = stronger binding) (broad panel of kinases [5]): 92%
percent of control binding remaining (lower = stronger binding) (broad panel of kinases [6]): 98%
percent of control binding remaining (lower = stronger binding) (broad panel of kinases [7]): 74%
percent of control binding remaining (lower = stronger binding) (broad panel of kinases [8]): 94%
percent of control binding remaining (lower = stronger binding) (broad panel of kinases [9]): 100%
percent of control binding remaining (lower = stronger binding) (broad panel of kinases [10]; ABL1(F317L)-nonphosphorylated): 0%
percent of control binding remaining (lower = stronger binding) (broad panel of kinases [10]; ABL1(F317L)-phosphorylated): 0.5%
percent of control binding remaining (lower = stronger binding) (broad panel of kinases [11]): 92%
percent of control binding remaining (lower = stronger binding) (broad panel of kinases [12]): 87%
percent of control binding remaining (lower = stronger binding) (broad panel of kinases [13]): 91%
percent of control binding remaining (lower = stronger binding) (broad panel of kinases [14]): 70%
percent of control binding remaining (lower = stronger binding) (broad panel of kinases [15]): 94%
percent of control binding remaining (lower = stronger binding) (broad panel of kinases [16]): 26%
percent of control binding remaining (lower = stronger binding) (broad panel of kinases [17]): 97%
percent of control binding remaining (lower = stronger binding) (broad panel of kinases [18]): 100%
percent of control binding remaining (lower = stronger binding) (broad panel of kinases [19]): 0%
percent of control binding remaining (lower = stronger binding) (broad panel of kinases [20]): 100%
percent of control binding remaining (lower = stronger binding) (broad panel of kinases [21]): 100%
percent of control binding remaining (lower = stronger binding) (broad panel of kinases [22]; CDK4-cyclinD1): 96%
percent of control binding remaining (lower = stronger binding) (broad panel of kinases [22]; CDK4-cyclinD3): 94%
percent of control binding remaining (lower = stronger binding) (broad panel of kinases [23]): 96%
percent of control binding remaining (lower = stronger binding) (broad panel of kinases [24]): 98%
percent of control binding remaining (lower = stronger binding) (broad panel of kinases [25]): 92%
percent of control binding remaining (lower = stronger binding) (broad panel of kinases [26]): 100%
percent of control binding remaining (lower = stronger binding) (broad panel of kinases [27]): 100%
percent of control binding remaining (lower = stronger binding) (broad panel of kinases [28]): 73%
percent of control binding remaining (lower = stronger binding) (broad panel of kinases [29]): 94%
percent of control binding remaining (lower = stronger binding) (broad panel of kinases [30]): 92%
percent of control binding remaining (lower = stronger binding) (broad panel of kinases [31]): 100%
percent of control binding remaining (lower = stronger binding) (broad panel of kinases [32]): 100%
percent of control binding remaining (lower = stronger binding) (broad panel of kinases [33]): 0.35%
percent of control binding remaining (lower = stronger binding) (broad panel of kinases [34]): 99%
percent of control binding remaining (lower = stronger binding) (broad panel of kinases [35]): 100%
percent of control binding remaining (lower = stronger binding) (broad panel of kinases [36]): 98%
percent of control binding remaining (lower = stronger binding) (broad panel of kinases [37]): 91%

C=CC(=O)N1CC[C@H](Nc2nccc(Nc3ncc(C(=O)Nc4c(C)cccc4C)s3)n2)C1 [Example I-3]
percent of control binding remaining (lower = stronger binding) (broad panel of kinases [1]): 96%
percent of control binding remaining (lower = stronger binding) (broad panel of kinases [2]): 97%
percent of control binding remaining (lower = stronger binding) (broad panel of kinases [3]): 100%
percent of control binding remaining (lower = stronger binding) (broad panel of kinases [4]): 95%
percent of control binding remaining (lower = stronger binding) (broad panel of kinases [5]): 93%
percent of control binding remaining (lower = stronger binding) (broad panel of kinases [6]): 100%
percent of control binding remaining (lower = stronger binding) (broad panel of kinases [7]): 100%
percent of control binding remaining (lower = stronger binding) (broad panel of kinases [8]): 85%
percent of control binding remaining (lower = stronger binding) (broad panel of kinases [9]): 100%
% change compared to control (broad panel of kinases [10]; ABL1(F317L)-nonphosphorylated): 0.5%
% change compared to control (broad panel of kinases [10]; ABL1(F317L)-phosphorylated): 2%
percent of control binding remaining (lower = stronger binding) (broad panel of kinases [11]): 93%
percent of control binding remaining (lower = stronger binding) (broad panel of kinases [12]): 84%
percent of control binding remaining (lower = stronger binding) (broad panel of kinases [13]): 96%
percent of control binding remaining (lower = stronger binding) (broad panel of kinases [14]): 80%
percent of control binding remaining (lower = stronger binding) (broad panel of kinases [15]): 84%
percent of control binding remaining (lower = stronger binding) (broad panel of kinases [16]): 26%
percent of control binding remaining (lower = stronger binding) (broad panel of kinases [17]): 95%
percent of control binding remaining (lower = stronger binding) (broad panel of kinases [18]): 95%
percent of control binding remaining (lower = stronger binding) (broad panel of kinases [19]): 0%
percent of control binding remaining (lower = stronger binding) (broad panel of kinases [20]): 93%
percent of control binding remaining (lower = stronger binding) (broad panel of kinases [21]): 100%
percent of control binding remaining (lower = stronger binding) (broad panel of kinases [22]; CDK4-cyclinD1): 99%
percent of control binding remaining (lower = stronger binding) (broad panel of kinases [22]; CDK4-cyclinD3): 95%
percent of control binding remaining (lower = stronger binding) (broad panel of kinases [23]): 91%
percent of control binding remaining (lower = stronger binding) (broad panel of kinases [24]): 100%
percent of control binding remaining (lower = stronger binding) (broad panel of kinases [25]): 99%
percent of control binding remaining (lower = stronger binding) (broad panel of kinases [26]): 95%
percent of control binding remaining (lower = stronger binding) (broad panel of kinases [27]): 90%
percent of control binding remaining (lower = stronger binding) (broad panel of kinases [28]): 100%
percent of control binding remaining (lower = stronger binding) (broad panel of kinases [29]): 57%
percent of control binding remaining (lower = stronger binding) (broad panel of kinases [30]): 100%
percent of control binding remaining (lower = stronger binding) (broad panel of kinases [31]): 100%
percent of control binding remaining (lower = stronger binding) (broad panel of kinases [32]): 97%
percent of control binding remaining (lower = stronger binding) (broad panel of kinases [33]): 0.2%
percent of control binding remaining (lower = stronger binding) (broad panel of kinases [34]): 100%
percent of control binding remaining (lower = stronger binding) (broad panel of kinases [35]): 100%
percent of control binding remaining (lower = stronger binding) (broad panel of kinases [36]): 81%
percent of control binding remaining (lower = stronger binding) (broad panel of kinases [37]): 80%
